Measurements taken from PMC6560442, “Biochemical Properties of Polyphenol Oxidases from Ready-to-Eat Lentil (Lens culinaris Medik.) Sprouts and Factors Affecting Their Activities: A Search for Potent Tools Limiting Enzymatic Browning” (Foods, 2019).

Columns and labels:
PPO I = tested on: T1, PPO I; experiment: quinone formation, absorbance at […] nm, Lineweaver-Burk; assay type: biochemical, Lens culinaris; details: TRIS-HCl 50 mM pH 6.5 (standard assay); 1-30 mM substrate; partially purified enzyme
T1 construct: first isoenzyme

PPO II = tested on: T2, PPO II; experiment: as above; assay type: biochemical, Lens culinaris; details: TRIS-HCl 50 mM pH 6.5 (standard assay); 1-30 mM substrate; partially purified enzyme
T2 construct: second isoenzyme

Row | SMILES | Km (PPO I) [µM] | Km (PPO II) [µM]
1 | Cc1ccc(O)c(O)c1 [4-methylcatechol] | 3000 ± 140 | 3400 ± 150
2 | O=C(O)/C=C/c1ccc(O)c(O)c1 [Caffeic acid] | 3810 ± 170 | –
3 | Oc1ccccc1O [Catechol] | 1760 ± 80 | 940 ± 40
4 | O=C(O)c1cc(O)c(O)c(O)c1 [Gallic acid] | 2250 ± 100 | 5000 ± 230
